Reference: patent US9758526B2, “Quinoline-substituted compound” (TAIHO PHARMACEUTICAL CO., LTD., priority 2013, dated 2017)

Legend:
[1] = target: T1, EGFR (d746-750/T790M) (Homo sapiens, UniProt P00533, DEL746-750/T790M); assay: EGFR (d746-750/T790M) kinase inhibitory activity; assay type: biochemical; conditions: ATP 1.5 μM
T1 construct: purchased Carna Biosciences, Inc
Method in brief: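 Recombinant human EGFR d746-750/T790M phosphorylating biotinylated peptide (250 nM) with 1.5 μM ATP, 10 mM MgCl2 and MnCl2, 2.5% DMSO, 120 min at 25 °C. EDTA-stopped; phosphotyrosine detected by Eu-PT66/APC-SA TR-FRET (665/620 nm ratio). IC50 from percent inhibition curves, EDTA-first samples as background.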

[2] = tested on: HCC827 expressing EGFR (d746-750); assay: Growth inhibition, HCC827 expressing EGFR (d746-750); assay type: cell-based; conditions: Homo sapiens, HCC827, 72 h; cultured three days, CellTiter-Glo
Method in brief: (§1)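 Cells seeded and grown 1 day, then exposed 3 days at 37 °C/5% CO2 to serial dilutions (final DMSO 0.2%). CellTiter-Glo luminescence was read before dosing and after 3 days; GI50 from inhibition (C−T)/(C−C0)×100 by curve fitting.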

[3] = target: T2, EGFR (WT) (Homo sapiens, UniProt P00533); assay: EGFR (WT) kinase inhibitory activity; assay type: biochemical; conditions: substrate peptide 500 nM
T2 construct: expressing a cytoplasmic domain of human EGFR (WT) with its N-terminus fused to a FLAG tag; FLAG (N); made in house; host or cells: insect Sf9 cells, baculovirus expression system
T2 sequence (P00533 669-1210 limits assumed): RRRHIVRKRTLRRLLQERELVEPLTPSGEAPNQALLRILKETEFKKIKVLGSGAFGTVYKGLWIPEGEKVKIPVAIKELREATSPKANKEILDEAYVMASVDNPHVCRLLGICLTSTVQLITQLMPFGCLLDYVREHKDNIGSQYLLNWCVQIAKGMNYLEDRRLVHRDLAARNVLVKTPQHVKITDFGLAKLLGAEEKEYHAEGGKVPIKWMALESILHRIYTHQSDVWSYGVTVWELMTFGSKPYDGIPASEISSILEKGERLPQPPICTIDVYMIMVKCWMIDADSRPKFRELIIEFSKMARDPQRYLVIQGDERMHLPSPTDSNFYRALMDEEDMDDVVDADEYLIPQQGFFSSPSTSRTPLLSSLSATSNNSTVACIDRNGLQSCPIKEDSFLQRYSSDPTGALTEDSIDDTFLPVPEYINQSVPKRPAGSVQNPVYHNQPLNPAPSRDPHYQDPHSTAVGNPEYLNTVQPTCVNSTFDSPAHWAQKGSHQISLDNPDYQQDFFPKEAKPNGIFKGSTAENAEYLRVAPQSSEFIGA
Method in brief: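 The kinase was the cytoplasmic domain of human EGFR WT, N-terminally FLAG-tagged, expressed in Sf9 cells via baculovirus and purified on anti-FLAG agarose. Phosphotyrosine was detected by Eu-PT66/APC-SA TR-FRET (665/620 nm ratio), and IC50 was fitted from % inhibition.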

[4] = target: T3, EGFR (L858R) (Homo sapiens, UniProt P00533, L858R); assay: EGFR (L858R) kinase inhibitory activity; assay type: biochemical; conditions: ATP 4 μM
T3 construct: purchased Carna Biosciences, Inc
T3 sequence (P00533 25-1210 L858R): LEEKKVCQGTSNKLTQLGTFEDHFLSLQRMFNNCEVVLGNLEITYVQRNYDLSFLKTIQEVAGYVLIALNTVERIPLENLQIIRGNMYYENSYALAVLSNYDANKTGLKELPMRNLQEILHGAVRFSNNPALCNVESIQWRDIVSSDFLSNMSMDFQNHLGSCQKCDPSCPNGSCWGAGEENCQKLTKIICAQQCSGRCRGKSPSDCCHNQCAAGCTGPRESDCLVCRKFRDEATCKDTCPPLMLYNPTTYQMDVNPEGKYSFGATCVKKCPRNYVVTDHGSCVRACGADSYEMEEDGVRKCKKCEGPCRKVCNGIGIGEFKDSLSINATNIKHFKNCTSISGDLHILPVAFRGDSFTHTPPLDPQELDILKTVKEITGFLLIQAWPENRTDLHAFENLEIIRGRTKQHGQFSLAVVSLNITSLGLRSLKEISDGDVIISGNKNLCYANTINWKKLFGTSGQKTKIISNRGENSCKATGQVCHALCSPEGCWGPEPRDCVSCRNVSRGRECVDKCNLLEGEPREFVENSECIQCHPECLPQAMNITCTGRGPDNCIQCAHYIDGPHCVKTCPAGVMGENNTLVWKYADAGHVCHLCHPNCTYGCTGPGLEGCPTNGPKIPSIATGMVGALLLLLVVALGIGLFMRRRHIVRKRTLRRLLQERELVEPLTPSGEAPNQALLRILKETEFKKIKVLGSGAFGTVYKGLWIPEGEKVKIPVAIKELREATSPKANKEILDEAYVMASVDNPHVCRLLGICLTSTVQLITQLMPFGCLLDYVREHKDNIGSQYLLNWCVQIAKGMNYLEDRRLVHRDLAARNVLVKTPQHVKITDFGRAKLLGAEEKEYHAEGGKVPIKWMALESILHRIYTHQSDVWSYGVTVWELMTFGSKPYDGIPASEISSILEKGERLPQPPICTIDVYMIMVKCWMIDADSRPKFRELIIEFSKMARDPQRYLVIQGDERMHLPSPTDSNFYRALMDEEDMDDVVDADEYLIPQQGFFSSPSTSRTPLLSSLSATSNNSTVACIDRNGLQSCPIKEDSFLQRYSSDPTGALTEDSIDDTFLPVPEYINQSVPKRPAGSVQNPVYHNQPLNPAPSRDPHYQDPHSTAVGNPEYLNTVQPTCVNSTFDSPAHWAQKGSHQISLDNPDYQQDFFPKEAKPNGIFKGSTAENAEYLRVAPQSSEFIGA
Method in brief: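 Recombinant human EGFR (L858R) was incubated with 250 nM biotinylated peptide, 4 μM ATP, 10 mM MgCl2 and 10 mM MnCl2 in 2.5% DMSO for 120 min at 25 °C. The reaction was stopped with EDTA, and phosphotyrosine was detected by TR-FRET (Eu-PT66 antibody/APC-SA, 665/620 nm ratio). IC50 was obtained from the inhibition curves.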

[5] = target: T4, EGFR (d746-750) (Homo sapiens, UniProt P00533, DEL746-750); assay: EGFR (d746-750) kinase inhibitory activity; assay type: biochemical; conditions: ATP 5 μM, kinase reaction 90 minutes
T4 construct: purchased Carna Biosciences, Inc
T4 sequence (P00533 with tags, fused parts or gaps DEL746-750 limits assumed): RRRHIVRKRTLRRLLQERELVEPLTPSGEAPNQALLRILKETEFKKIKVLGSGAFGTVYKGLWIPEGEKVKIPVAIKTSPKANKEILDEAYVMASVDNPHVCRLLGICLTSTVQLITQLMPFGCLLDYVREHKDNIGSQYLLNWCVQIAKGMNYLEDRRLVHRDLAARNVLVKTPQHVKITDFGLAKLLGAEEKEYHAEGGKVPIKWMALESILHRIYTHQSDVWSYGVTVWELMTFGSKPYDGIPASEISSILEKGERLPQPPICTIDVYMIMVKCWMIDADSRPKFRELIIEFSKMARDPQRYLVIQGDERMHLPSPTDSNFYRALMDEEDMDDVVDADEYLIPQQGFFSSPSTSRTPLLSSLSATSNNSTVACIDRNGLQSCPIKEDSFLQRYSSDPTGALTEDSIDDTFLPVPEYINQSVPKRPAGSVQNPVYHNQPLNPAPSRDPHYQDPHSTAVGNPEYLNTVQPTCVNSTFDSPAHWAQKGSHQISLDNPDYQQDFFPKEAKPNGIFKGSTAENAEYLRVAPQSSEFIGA
Method in brief: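 Recombinant human EGFR (d746-750) with 250 nM biotinylated peptide, 5 μM ATP, 10 mM MgCl2 and 10 mM MnCl2, 2.5% DMSO, reacted 90 min at 25° C., stopped with EDTA. Phosphotyrosine detected by TR-FRET (Eu-PT66 antibody/APC-streptavidin, 665/620 nm ratio), with EDTA-pre-stopped background; IC50 (nM) from inhibition curve fit.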

[6] = target: T5, EGFR (T790M/L858R) (Homo sapiens, UniProt P00533, L858R/T790M); assay: EGFR (T790M/L858R) kinase inhibitory activity; assay type: biochemical; conditions: ATP 1 μM, 25° C. for 120 minutes
T5 construct: purchased Carna Biosciences, Inc
T5 sequence (P00533 25-1210 T790M/L858R): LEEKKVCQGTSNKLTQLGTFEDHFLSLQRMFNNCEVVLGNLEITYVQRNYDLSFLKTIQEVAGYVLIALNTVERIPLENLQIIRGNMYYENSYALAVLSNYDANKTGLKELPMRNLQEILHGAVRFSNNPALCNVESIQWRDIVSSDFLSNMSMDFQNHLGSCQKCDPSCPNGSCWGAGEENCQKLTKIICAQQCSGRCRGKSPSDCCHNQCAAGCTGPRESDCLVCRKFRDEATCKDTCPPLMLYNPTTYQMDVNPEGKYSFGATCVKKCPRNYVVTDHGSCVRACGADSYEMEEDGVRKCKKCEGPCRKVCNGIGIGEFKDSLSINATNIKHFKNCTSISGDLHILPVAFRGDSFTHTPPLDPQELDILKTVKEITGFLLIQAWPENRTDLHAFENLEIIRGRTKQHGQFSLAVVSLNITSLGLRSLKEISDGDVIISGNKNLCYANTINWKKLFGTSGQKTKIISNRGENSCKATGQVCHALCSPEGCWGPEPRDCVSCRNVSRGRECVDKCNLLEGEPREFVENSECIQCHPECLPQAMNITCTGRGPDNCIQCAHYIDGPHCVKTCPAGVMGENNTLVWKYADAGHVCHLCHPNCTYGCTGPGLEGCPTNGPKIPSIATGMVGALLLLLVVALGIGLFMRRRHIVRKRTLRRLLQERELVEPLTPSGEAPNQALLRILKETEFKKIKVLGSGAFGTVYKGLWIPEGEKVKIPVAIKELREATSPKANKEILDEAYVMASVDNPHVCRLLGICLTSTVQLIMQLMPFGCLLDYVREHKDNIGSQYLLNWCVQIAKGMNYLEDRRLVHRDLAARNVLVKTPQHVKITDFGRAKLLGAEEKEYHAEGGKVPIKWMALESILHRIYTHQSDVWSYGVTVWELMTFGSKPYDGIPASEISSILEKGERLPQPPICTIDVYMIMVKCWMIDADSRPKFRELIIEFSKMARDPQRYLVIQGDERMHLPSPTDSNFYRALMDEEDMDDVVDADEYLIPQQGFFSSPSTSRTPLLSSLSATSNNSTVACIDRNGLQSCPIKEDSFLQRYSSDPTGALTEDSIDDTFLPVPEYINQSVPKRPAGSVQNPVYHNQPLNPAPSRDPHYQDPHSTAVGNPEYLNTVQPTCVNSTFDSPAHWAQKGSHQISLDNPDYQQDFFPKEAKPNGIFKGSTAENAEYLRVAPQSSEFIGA

[7] = tested on: A431 expressing EGFR (WT); assay: Growth inhibition, A431 expressing EGFR (WT); assay type: cell-based; conditions: Homo sapiens, A-431, 72 h; cultured three days, CellTiter-Glo
Method in brief: as §1

[8] = tested on: NCI-H1975 expressing EGFR (T790M/L858R); assay: Growth inhibition, NCI-H1975 expressing EGFR (T790M/L858R); assay type: cell-based; conditions: Homo sapiens, NCI-H1975, 72 h; cultured three days, CellTiter-Glo
Method in brief: as §1

T1 sequence (P00533 with tags, fused parts or gaps DEL746-750/T790M limits assumed): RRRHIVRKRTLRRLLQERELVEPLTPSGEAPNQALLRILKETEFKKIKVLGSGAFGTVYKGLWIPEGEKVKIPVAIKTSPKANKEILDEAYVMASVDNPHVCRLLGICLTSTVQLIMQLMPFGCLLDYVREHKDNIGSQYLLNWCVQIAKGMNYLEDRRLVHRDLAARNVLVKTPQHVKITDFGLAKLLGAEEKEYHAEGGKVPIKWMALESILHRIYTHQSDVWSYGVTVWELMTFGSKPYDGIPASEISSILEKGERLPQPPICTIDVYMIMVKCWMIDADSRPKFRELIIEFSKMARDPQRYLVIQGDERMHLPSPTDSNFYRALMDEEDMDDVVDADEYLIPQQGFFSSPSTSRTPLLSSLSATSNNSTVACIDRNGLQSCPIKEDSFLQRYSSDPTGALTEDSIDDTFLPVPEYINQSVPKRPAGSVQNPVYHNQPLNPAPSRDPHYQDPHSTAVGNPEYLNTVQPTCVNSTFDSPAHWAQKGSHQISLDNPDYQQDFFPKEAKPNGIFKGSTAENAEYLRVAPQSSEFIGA

| Structure (SMILES) | IC50 [1] | GI50 [2] | IC50 [3] | IC50 [4] | IC50 [5] | IC50 [6] | GI50 [7] | GI50 [8] |
| --- | --- | --- | --- | --- | --- | --- | --- | --- |
| C=CC(=O)N[C@@H]1Cn2c(c(-c3cnc4ccccc4c3)c3c(N)ncnc32)C1C (stereo partly drawn) [Example 24, N-((7S)-4-amino-6-methyl-5-(quinolin-3-yl)-7,8-dihydro-6H-pyrimido[5,4-b]pyrrolizin-7-yl)acrylamide] | 0.31 nM | 4.9 nM | 8.6 nM | 1.1 nM | 0.85 nM | 0.83 nM | 3400 nM | 110 nM |
| C=C(C)C(=O)N[C@@H]1Cn2c(c(-c3cnc4ccccc4c3)c3c(N)ncnc32)C1=C [Example 2, (S)—N-(4-amino-6-methylene-5-(quinolin-3-yl)-7,8-dihydro-6H -pyrimido[5,4-b]pyrrolizin-7-yl)methacrylamide] | 30 nM | 780 nM | 1400 nM | 230 nM | 78 nM | 77 nM | > 10000 nM | 4200 nM |
